{"source": "paper PMC6562427", "about": "“A New Tyrosinase Inhibitor from the Red Alga Symphyocladia latiuscula (Harvey) Yamada (Rhodomelaceae)” (Marine Drugs, 2019)", "key": {"[1]": {"molecular_target": "T1, tyrosinase in α-MSH-induced B16F10 melanoma cells (Mus musculus, UniProt P11344)", "T1 construct": "the supernatant was used as cellular tyrosinase solution; endogenous in cells; host or cells: B16F10 melanoma cells, α-MSH stimulated", "T1 sequence (P11344 19-533)": "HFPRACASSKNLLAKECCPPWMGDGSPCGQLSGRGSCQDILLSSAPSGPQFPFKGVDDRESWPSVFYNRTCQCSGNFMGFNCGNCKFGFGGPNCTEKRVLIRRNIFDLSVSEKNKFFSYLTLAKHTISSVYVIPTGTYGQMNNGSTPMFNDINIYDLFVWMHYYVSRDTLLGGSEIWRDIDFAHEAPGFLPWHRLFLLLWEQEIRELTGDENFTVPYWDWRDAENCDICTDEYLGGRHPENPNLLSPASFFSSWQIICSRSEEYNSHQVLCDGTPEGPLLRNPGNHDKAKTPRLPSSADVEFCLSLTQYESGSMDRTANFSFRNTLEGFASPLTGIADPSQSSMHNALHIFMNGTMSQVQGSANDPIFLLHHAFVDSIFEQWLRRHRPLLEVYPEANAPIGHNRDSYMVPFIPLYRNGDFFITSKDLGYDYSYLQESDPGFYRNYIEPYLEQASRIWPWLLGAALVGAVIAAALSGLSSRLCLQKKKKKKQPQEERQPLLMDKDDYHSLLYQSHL", "assay": "Cellular tyrosinase assay (L-DOPA oxidation)", "type": "cell-based", "settings": "5 µM α-MSH 48 h; for intracellular tyrosinase level: α-MSH alone 215.73%; for effect on intracellular tyrosinase activity: 6.25, 12.5 and 25 µM", "experimental": "Intracellular tyrosinase inhibitory activity was evaluated by measuring the rate of oxidation of L-DOPA [57]. […] The cells were washed with PBS and lysed with a radio immunoprecipitation assay buffer. The cell lysates were kept in a deep freezer (−80 °C) for 1 h. After defrosting the cell lysates, the cellular extracts were purified by centrifugation at 14,000 rpm for 20 min at 4 °C, and the supernatant was used as cellular tyrosinase solution. A total of 80 µL of supernatant and 20 µL of L-DOPA (2 mg/mL) were added to a 96-well plate and incubated at 37 °C for 45 min. Dopachrome formation was then measured spectrophotometrically at 450 nm using a microplate spectrophotometer (Molecular Devices). Intracellular tyrosinase activity was calculated as the percentage of control."}, "B16F10 melanoma cells": {"tested_on": "B16F10 melanoma cells", "assay": "Melanin content assay in α-MSH-stimulated cells", "type": "cell-based, mouse", "settings": "for melanin content: α-MSH alone 151.72%; for effect on melanin content: 6.25, 12.5 and 25 µM", "experimental": "Intracellular melanin content was determined according to a previously reported procedure with minor modifications. Briefly, B16F10 cells were seeded in a 24-well plate at 2 × 10,000 cells/well and incubated for 24 h in DMEM containing 10% FBS. Cells were pretreated with 6.25, 12.5, and 25 μM test compounds for 1 h and stimulated with 5 μM α-MSH for 48 h. […] The cells were washed with PBS and dissolved in 1 N NaOH containing 10% DMSO by boiling at 80 °C for 30 min. The cell lysates were centrifuged at 14,000 rpm for 20 min, and absorbance of the supernatant was measured at 405 nm. Melanin content was determined by normalizing the absorbance with total protein content."}, "[2]": {"tested_on": "tyrosinase protein expression in α-MSH-stimulated B16F10 cells", "assay": "Tyrosinase protein levels via western blotting", "type": "cell-based, mouse", "experimental": "The cell suspensions were centrifuged at 16,000 × g for 5 min, and the cell pellets were lysed in a lysis buffer and incubated on ice for 10 min. The cell lysates were centrifuged at 16,000 × g for 10 min, and the supernatant (total protein) was normalized using a Bradford protein assay kit. Aliquots of protein were resolved by sodium dodecyl sulfate-polyacrylamide gel electrophoresis and transferred onto a nitrocellulose membrane. The membrane was blocked with 10% nonfat milk (w/v) in tris-buffered saline with tween (TBST) (0.1 M Tris-HCl, pH 7.5, 1.5 M NaCl, 1% Tween20) for 2 h and incubated for approximately 24 h with TYR primary antibody. The immunoblots were then incubated with appropriate secondary antibodies for 2 h and detected using an enhanced chemiluminescence detection kit."}, "mushroom tyrosinase [3]": {"molecular_target": "T2, mushroom tyrosinase (Agaricus bisporus, UniProt C7FF04)", "T2 construct": "purchased Sigma Aldrich", "T2 sequence (C7FF04 1-392)": "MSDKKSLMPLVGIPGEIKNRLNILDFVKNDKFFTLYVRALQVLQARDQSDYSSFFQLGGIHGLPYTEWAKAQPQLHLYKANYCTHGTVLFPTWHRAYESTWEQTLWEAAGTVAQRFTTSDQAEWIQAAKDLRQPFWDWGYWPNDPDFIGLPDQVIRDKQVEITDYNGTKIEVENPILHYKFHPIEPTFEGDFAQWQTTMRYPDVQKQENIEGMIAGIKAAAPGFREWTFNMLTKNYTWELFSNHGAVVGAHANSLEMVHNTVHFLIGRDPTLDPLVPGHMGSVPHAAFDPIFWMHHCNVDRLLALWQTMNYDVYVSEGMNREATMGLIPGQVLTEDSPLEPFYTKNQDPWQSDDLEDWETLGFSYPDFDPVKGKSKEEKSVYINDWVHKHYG", "assay": "Mushroom tyrosinase inhibitory assay (spectrophotometric)", "type": "biochemical", "settings": "mean ± SD, n = 3", "experimental": "The inhibitory activity of mushroom tyrosinase was carried out using a spectrophotometric method described in [27] with slight modifications. […] Then, 20 µL of tyrosinase was added and incubated at room temperature for between 10 and 30 minutes. Absorbance was measured at 490 nm after incubation."}, "[4]": {"assay": "Cell viability, MTT assay", "type": "cell-based", "settings": "mouse", "experimental": "B16F10 mouse melanoma cells obtained from American Type Culture Collection (Manassas, VA, USA) were maintained in 10% FBS in high-glucose DMEM containing 100 U/mL penicillin and 100 μg/mL streptomycin at 37 °C in a humidified atmosphere with 5% CO2. Cytotoxicity was evaluated using a 3-(4,5-dimethylthiazol-2-yl)-2,5-diphenyltetrazolium bromide (MTT) assay. After 95% of confluence, B16F10 cells were seeded in a 96-well plate at 10,000 cells/well and incubated for 24 h in DMEM supplemented with 10% FBS. The cells were then fed fresh serum-free DMEM containing different concentrations (25 to 100 μM) of the test compounds and incubated for 48 h. After that, the cells were incubated with 100 μL of MTT at a concentration of […] in phosphate-buffered saline (PBS) for 2 h. Absorbance was measured at 490 nm by a microplate reader (Promega Corporation Instrument, USA) after 2 h of incubation. The viability of cells at 48 h upon co-treatment with α-MSH was evaluated by treating cells with 5 μM α-MSH 1 h after the treatment with test compounds."}, "mushroom tyrosinase [5]": {"molecular_target": "T2, mushroom tyrosinase", "assay": "Kinetic study against mushroom tyrosinase (Lineweaver-Burk and secondary plots)", "type": "biochemical", "experimental": "The inhibition type was determined using a Lineweaver–Burk plot. The apparent slope (Kmapp/Vmaxapp) and intercept (1/Vmaxapp) versus different inhibitor concentrations was used to determine the inhibition constant (Ki). Different kinetic parameters were obtained for different concentrations of the substrate (0.5, 0.75, and 1 mM) and inhibitors (compound 1—0.0, 4.0, 6.6, and 9.3 µM; compound 3—0, 2.5, 2.6, and 2.7 µM). Sigmaplot version 12.0 (SPSS Inc., Chicago, IL, USA) was employed to generate the plots."}, "[6]": {"settings": "IC50 L-Tyrosine, substrate L-tyrosine"}}, "note": "Like-named read-outs stand apart in the source and are kept apart here.", "data": [{"smiles": "OC[C@H]1O[C@@H](Oc2ccc(O)cc2)[C@H](O)[C@@H](O)[C@@H]1O", "note": "[Arbutin, reference compound]", "values": [{"measurement": "intracellular tyrosinase level", "setting": "[1]; 500 µM", "result": 130.75, "unit": "%"}, {"measurement": "melanin content", "setting": "B16F10 melanoma cells; 500 µM, 5 µM α-MSH 48 h", "result": 124.06, "unit": "%"}, {"measurement": "tyrosinase protein expression", "setting": "[2]; arbutin pre-treatment (positive control)", "result": "significantly reduced the expression levels"}]}, {"smiles": "COCc1c(Br)c(O)c(O)c(Br)c1Br", "note": "[Compound 2, 2,3,6-tribromo-4,5-dihydroxybenzyl methyl ether]", "values": [{"measurement": "IC50", "setting": "mushroom tyrosinase [3]; IC50 L-DOPA, substrate L-DOPA", "result": "> 300", "unit": "µM"}, {"measurement": "IC50", "setting": "mushroom tyrosinase [3]; [6]", "result": "113.9 ± 0.75", "unit": "µM"}, {"measurement": "effect on intracellular tyrosinase activity", "setting": "[1]", "result": "did not show a significant reduction"}, {"measurement": "effect on melanin content", "setting": "B16F10 melanoma cells; 5 µM α-MSH 48 h", "result": "no significant reduction"}, {"measurement": "tyrosinase protein expression", "setting": "[2]; 6.25, 12.5 and 25 μM, 48 h", "result": "did not reduce expression"}, {"measurement": "viability at 48 h, 100 µM", "setting": "[4]; 100 µM, 48 h, MTT, read-out: viable cells", "result": "~100", "unit": "%"}]}, {"smiles": "Oc1c(O)c(Br)c(COCc2c(Br)c(O)c(O)c(Br)c2Br)c(Br)c1Br", "note": "[Compound 3, bis-(2,3,6-tribromo-4,5-dihydroxybenzylmethyl ether)]", "values": [{"measurement": "IC50", "setting": "mushroom tyrosinase [3]; IC50 L-DOPA, substrate L-DOPA", "result": "111 ± 4.95", "unit": "µM"}, {"measurement": "IC50", "setting": "mushroom tyrosinase [3]; [6]", "result": "2.92 ± 0.04", "unit": "µM"}, {"measurement": "Ki", "setting": "mushroom tyrosinase [5]", "result": 1.98, "unit": "µM"}, {"measurement": "Inhibition Type", "setting": "mushroom tyrosinase [5]; substrate L-tyrosine, from Lineweaver-Burk plots", "result": "competitive-type inhibition"}, {"measurement": "intracellular tyrosinase level", "setting": "[1]; 25 µM", "result": 94.81, "unit": "%"}, {"measurement": "effect on intracellular tyrosinase activity", "setting": "[1]", "result": "decreased in a dose-dependent manner"}, {"measurement": "melanin content", "setting": "B16F10 melanoma cells; 25 µM, pretreated 1 h then 5 µM α-MSH 48 h", "result": 98.68, "unit": "%"}, {"measurement": "effect on melanin content", "setting": "B16F10 melanoma cells; 5 µM α-MSH 48 h", "result": "reduced the melanin content in a dose-dependent manner"}, {"measurement": "tyrosinase protein expression", "setting": "[2]; 6.25, 12.5 and 25 μM, 48 h", "result": "inhibited α-MSH-induced accumulation of tyrosinase proteins in a concentration-dependent manner"}, {"measurement": "viability at 48 h, 100 µM", "setting": "[4]", "result": 86.9, "unit": "%"}]}]}
